These are literature values, as cited in patent publication US20070190114A1, “Antioxidant health lozenges” (priority 2006, published 2007).

The conditions of data set [1]: daily dose of 600 mg.
The subject of a further data set is peripheral lymphocytes. Particulars: peripheral lymphocytes in smokers.
A further data set has as its system alveolar macrophages. Particulars: alveolar macrophages in smokers.

Each structure is given as a SMILES string.

`CC(=O)N[C@@H](CS)C(=O)O` [N-acetyl cysteine]: the cancer chemopreventive effect result in data set [1] is on record as “effective cancer chemopreventive agent”.
Turning to `O=C(O[C@@H]1Cc2c(O)cc(O)cc2O[C@@H]1c1cc(O)c(O)c(O)c1)c1cc(O)c(O)c(O)c1` [epigallocatechin gallate], in the data set with peripheral lymphocytes, the sister-chromatid exchange result was “stabilize sister-chromatid exchange in peripheral lymphocytes in smokers to a level comparable to non-smokers”.
With `Oc1ccc(C=Cc2cc(O)cc(O)c2)cc1` [resveratrol], the “basal release of inflammatory cytokine” value with alveolar macrophages is “inhibits basal release of inflammatory cytokine from alveolar macrophages in smokers”.
